Assay results taken from patent US20120142771A1, “BIPHENYLACETAMIDE DERIVATIVE” (Dainippon Sumitomo Pharma Co., Ltd., priority 2008, published 2012).
Where two headings read alike, the source gives them in different places.

Assays:
[1] = test system: maximum electroshock seizure (MES) model; experiment: Maximum electroshock seizure (MES) model test; format: in vivo, mice; conditions: for responders at 100 mg/kg / responders at 50 mg/kg: Mus musculus, po, 1 h; for anticonvulsant action in maximum electroshock seizure (MES) model test: mice, oral 50 or 100 mg/kg, 1 hour after administration
Source text: In order to evaluate the antiepileptic activity of each drug, maximum electroshock seizure (MES) model, subcutaneously pentetrazol-injected model (scPTZ), and amygdala kindling model in rats were used because they show a good clinical prediction.
Test 1: Test with Maximum Electroshock Seizure (MES) Model
Test 1 evaluates the anticonvulsant action of medicaments. Animal model used herein represents the clinical phenotypes of generalized tonic seizure and secondarily generalized tonic-clonic seizure. Test compounds (50 or 100 mg/kg) were orally administered to Slc: ddY male mice (3 mice in each group, body weight 20-30 g). After an hour of administration, their corneas were electrically stimulated (60 Hz, 25 mA, 0.2 second) to induce tonic convulsion (tonic extensor in their hind limbs). […] To the control mice, 0.5% tragacanth solution or 0.5% methylcellulose solution was administered.

[2] = test system: subcutaneously pentetrazol-injected model (scPTZ); experiment: Subcutaneously pentetrazol-injected model (scPTZ) test; format: in vivo, mice; conditions: for responders at 100 mg/kg / responders at 50 mg/kg: Mus musculus, po, 1 h; for anticonvulsant action in subcutaneously pentetrazol-injected model (scPTZ) test: mice, oral 50 or 100 mg/kg
Source text: In order to evaluate the antiepileptic activity of each drug, maximum electroshock seizure (MES) model, subcutaneously pentetrazol-injected model (scPTZ), and amygdala kindling model in rats were used because they show a good clinical prediction. […] Test with Subcutaneously Pentetrazol-Injected Model (scPTZ) Similar to Test 1, Test 2 evaluates the anticonvulsant action of medicaments. However, unlike Test 1, animal model used herein represents the clinical phenotypes of generalized absence seizure and myoclonic seizure. Test compounds (50 or 100 mg/kg) were orally administered to Slc: ddY male mice (3 mice in each group, body weight 20-30 g). After an hour, pentetrazol (85 mg/kg) was subcutaneously administered. […] To the control mice, 0.5% tragacanth solution or 0.5% methylcellulose solution was administered.

[3] = 100 mg/kg oral, Slc: ddY male mice, 3 per group, electrical stimulation 1 hour after administration, inhibition of hind limb extension, read-out: MES (positive number/tested number) (converted)
[4] = 100 mg/kg oral, Slc: ddY male mice, 3 per group, pentetrazol 85 mg/kg s.c. after 1 hour, observed 30 minutes for clonic convulsion, read-out: scPTZ (positive number/tested number) (converted)
[5] = 50 mg/kg oral, Slc: ddY male mice, 3 per group, electrical stimulation 1 hour after administration, inhibition of hind limb extension, read-out: MES (positive number/tested number) (converted)
[6] = 50 mg/kg oral, Slc: ddY male mice, 3 per group, pentetrazol 85 mg/kg s.c. after 1 hour, observed 30 minutes for clonic convulsion, read-out: scPTZ (positive number/tested number) (converted)
[7] = pentetrazol 85 mg/kg s.c. after 1 hour

| Compound | responders at 100 mg/kg [1, 3] [%] | responders at 100 mg/kg [2, 4] [%] | responders at 50 mg/kg [1, 5] [%] | responders at 50 mg/kg [2, 6] [%] | further results |
| --- | --- | --- | --- | --- | --- |
| CNC(=O)Cc1ccccc1-c1ccccc1Cl [Example 17] | 0 | 33.3 |  |  |  |
| NC(=O)Cc1ccccc1-c1ccc(F)cc1 [Example 22, 2-(4′-fluorobiphenyl-2-yl)acetamide] | 100 | 33.3 | 66.7 |  |  |
| NC(=O)C1(c2ccccc2-c2ccccc2)CC1 [Example 155] | 0 | 66.7 |  | 0 |  |
| NC(=O)C(O)c1cc(F)ccc1-c1ccccc1F (stereo not shown) [Example 187] | 100 | 0 |  |  |  |
| CNC(=O)C(C)c1ccccc1-c1ccccc1 (stereo not shown) [Example 57, 2-(biphenyl-2-yl)-N-methyl propanamide] | 66.7 | 66.7 | 66.7 | 66.7 | anticonvulsant action in maximum electroshock seizure (MES) model test [1]: anticonvulsant action was observed; anticonvulsant action in subcutaneously pentetrazol-injected model (scPTZ) test [2, 7]: anticonvulsant action was observed |
| NC(=O)Cc1ccccc1-c1ccccc1C(F)(F)F [Example 6] | 100 | 33.3 | 0 |  |  |
| CNC(=O)Cc1cc(Cl)ccc1-c1ccc(C(F)(F)F)cc1 [Example 143] | 0 | 100 |  |  |  |
| NC(=O)C(O)c1ccccc1-c1ccccc1F (single isomer, unassigned) [Example 213, 2-(2′-Fluorobiphenyl-2-yl)-2-hydroxyacetamide] | 100 | 33.3 |  |  | MES (positive number/tested number) ([1]; 50 mg/kg oral, Slc: ddY male mice, 3 per group, electrical stimulation 1 hour after administration, inhibition of hind limb extension): 0/3 |
| NC(=O)C(F)c1ccccc1-c1ccccc1 (stereo not shown) [Example 162, 2-(biphenyl-2-yl)-2-fluoroacetamide] |  |  |  |  | responders at 50 mg/kg ([1]; read-out: MES (positive number/tested number), 50 mg/kg oral, Slc: ddY male mice, 3 per group, electrical stimulation 1 hour after administration, inhibition of hind limb extension): 100%; responders at 100 mg/kg ([1]; read-out: MES (positive number/tested number), 100 mg/kg oral, Slc: ddY male mice, 3 per group, electrical stimulation 1 hour after administration, inhibition of hind limb extension): 100%; anticonvulsant action in maximum electroshock seizure (MES) model test [1]: anticonvulsant action was observed; responders at 50 mg/kg ([2]; read-out: scPTZ (positive number/tested number), 50 mg/kg oral, Slc: ddY male mice, 3 per group, pentetrazol 85 mg/kg s.c. after 1 hour, observed 30 minutes for clonic convulsion): 100%; responders at 100 mg/kg ([2]; read-out: scPTZ (positive number/tested number), 100 mg/kg oral, Slc: ddY male mice, 3 per group, pentetrazol 85 mg/kg s.c. after 1 hour, observed 30 minutes for clonic convulsion): 100%; anticonvulsant action in subcutaneously pentetrazol-injected model (scPTZ) test [2, 7]: anticonvulsant action was observed |
| NC(=O)Cc1ccccc1-c1cc(F)ccc1C(F)(F)F [Example 82] | 33.3 | 100 |  |  |  |
| CNC(=O)Cc1cc(C(F)(F)F)ccc1-c1ccc(Cl)cc1 [Example 138] | 0 | 66.7 |  |  |  |
| CNC(=O)Cc1cc(F)ccc1-c1ccccc1 [Example 45, 2-(4-fluorobiphenyl-2-yl)-N-methylacetamide] | 100 | 0 | 100 |  |  |
| CNC(=O)Cc1ccccc1-c1ccc(Cl)cc1 [Example 11] | 100 | 33.3 | 0 |  |  |
| CNC(=O)Cc1ccc(F)cc1-c1cc(Cl)cc(Cl)c1 [Example 151] | 66.7 | 0 |  |  |  |
| CC(C(N)=O)c1ccccc1-c1cccc(F)c1 (stereo not shown) [Example 175, 2-(3′-fluorobiphenyl-2-yl)propanamide] | 66.7 | 100 | 0 | 0 |  |
| NC(=O)C(O)c1ccccc1-c1cc(F)c(F)c(F)c1 (stereo not shown) [Example 193, 2-hydroxy-2-(3′,4′,5′-trifluorobiphenyl-2-yl)acetamide] | 100 | 66.7 | 100 | 100 |  |
| NC(=O)Cc1ccc(Cl)cc1-c1cccc(Cl)c1 [Example 127] | 66.7 | 33.3 |  |  |  |
| NC(=O)Cc1ccccc1-c1ccc(F)c(F)c1 [Example 21, 2-(3′,4′-difluorobiphenyl-2-yl)acetamide] | 100 | 100 | 33.3 | 0 |  |
| N#Cc1ccc(-c2ccccc2CC(N)=O)c(F)c1 [Example 106] | 0 | 66.7 |  |  |  |

| Compound | responders at 100 mg/kg [1, 3] [%] | responders at 100 mg/kg [2, 4] [%] | responders at 50 mg/kg [1, 5] [%] | responders at 50 mg/kg [2, 6] [%] | further results |
| --- | --- | --- | --- | --- | --- |
| O=C(Cc1ccccc1-c1ccccc1F)NCC1CC1 [Example 173] | 33.3 | 0 |  |  |  |
| NC(=O)Cc1ccccc1-c1ccc(C(F)(F)F)cc1 [Example 51] | 100 | 33.3 | 0 |  |  |
| CNC(=O)Cc1ccccc1-c1ccc(F)cc1C(F)(F)F [Example 104] | 100 | 0 |  |  |  |
| CCNC(=O)Cc1ccccc1-c1ccccc1Cl [Example 18] | 100 | 33.3 | 0 |  |  |
| CNC(=O)Cc1cc(F)ccc1-c1ccc(C(F)(F)F)cc1 [Example 136] | 100 | 0 |  |  |  |
| CNC(=O)C1(c2ccccc2-c2ccccc2)CC1 [Example 156] | 100 | 33.3 | 0 |  |  |
| CN(C)C(=O)Cc1cc(Cl)ccc1-c1ccccc1F [Example 38] | 0 | 100 |  | 0 |  |
| CNC(=O)C(C)c1ccccc1-c1ccccc1F (stereo not shown) [Example 58, 2-(2′-fluorobiphenyl-2-yl)-N-methyl propanamide] | 66.7 | 66.7 | 0 | 0 |  |
| NC(=O)Cc1cc(C(F)(F)F)ccc1-c1cccc(F)c1 [Example 144] | 33.3 | 66.7 |  |  |  |
| CNC(=O)Cc1ccc(Cl)cc1-c1ccccc1F [Example 126, 2-(5-chloro-2′-fluorobiphenyl-2-yl)-N-methylacetamide] | 66.7 | 100 | 0 | 66.7 |  |
| CNC(=O)Cc1ccccc1-c1cccc(C)c1 [Example 31, N-methyl-2-(3′-methylbiphenyl-2-yl)-acetamide] | 0 | 66.7 |  | 33.3 |  |
| CN(C)C(=O)Cc1ccccc1-c1ccc(F)cc1 [Example 24] | 100 | 0 | 33.3 |  |  |
| CNC(=O)Cc1ccccc1-c1cc(F)ccc1C(F)(F)F [Example 101] | 100 | 0 |  |  |  |
| NC(=O)Cc1ccccc1-c1ccc(Cl)cc1F [Example 68, 2-(4′-chloro-2′-fluorobiphenyl-2-yl)acetamide] | 100 | 66.7 | 0 | 0 |  |
| NC(=O)Cc1ccc(C(F)(F)F)cc1-c1cccc(F)c1 [Example 149, 2-[3′-fluoro-5-(trifluoromethyl)biphenyl-2-yl]acetamide] | 66.7 | 66.7 | 33.3 | 0 |  |
| NC(=O)Cc1ccccc1-c1ccc(Cl)c(C(F)(F)F)c1 [Example 75, 2-[4′-chloro-3′-(trifluoromethyl)biphenyl-2-yl]acetamide] | 100 | 66.7 | 0 | 33.3 |  |
| CNC(=O)Cc1ccccc1-c1ccccc1 [Example 54, 2-(biphenyl-2-yl)-N-methylacetamide] | 100 | 33.3 | 100 |  |  |
| CNC(=O)C1(c2ccccc2-c2ccccc2F)CC1 [Example 157, 1-(2′-fluorobiphenyl-2-yl)-N-methyl-cyclopropane-carboxamide] | 100 | 66.7 | 33.3 | 66.7 |  |
| NC(=O)C(O)c1ccccc1-c1ccc(Cl)c(C(F)(F)F)c1 (stereo not shown) [Example 195] | 100 | 33.3 |  |  |  |
